Values after ≈ are worked out from the molar mass of the structure shown. Where two headings read alike, the source gives them in different places.
What was measured:
[1] = tested on: Staphylococcus epidermidis EPI1; experiment: MIC, standard agar-dilution assay; assay type: cell-based
Description: (§1) The MIC's in Table II were determined by standard agar-dilution assays. The MIC's in Table III were obtained using conventional broth-dilution microtiter tests.

[2] = tested on: Streptococcus pneumoniae Park I; experiment: MIC, standard agar-dilution assay; assay type: cell-based
Description: as §1

[3] = tested on: Staphylococcus aureus X1.1; experiment: MIC, standard agar-dilution assay; assay type: cell-based
Description: as §1

[4] = tested on: Haemophilus influenzae C.L.; experiment: MIC, standard agar-dilution assay; assay type: cell-based
Description: as §1

[5] = tested on: Klebsiella pneumoniae X68; experiment: MIC, standard agar-dilution assay; assay type: cell-based
Description: as §1

[6] = tested on: Staphylococcus aureus X400; experiment: MIC, standard agar-dilution assay; assay type: cell-based
Description: as §1

[7] = tested on: Streptococcus pyogenes C203; experiment: MIC, standard agar-dilution assay; assay type: cell-based
Description: as §1

[8] = tested on: Staphylococcus epidermidis 222; experiment: MIC, standard agar-dilution assay; assay type: cell-based
Description: as §1

[9] = tested on: Streptococcus faecalis 2041; experiment: MIC, standard agar-dilution assay; assay type: cell-based; settings: Enterococcus faecalis
Description: as §1

Escherichia coli EC14 = experiment: MIC, standard agar-dilution assay; assay type: cell-based
Description: as §1

[10] = tested on: Haemophilus influenzae 76; experiment: MIC, standard agar-dilution assay; assay type: cell-based
Description: as §1

[11] = tested on: Pseudomonas aeruginosa X239; experiment: MIC, standard agar-dilution assay; assay type: cell-based
Description: as §1

[12] = tested on: Staphylococcus aureus S13E; experiment: MIC, standard agar-dilution assay; assay type: cell-based
Description: as §1

[13] = tested on: Staphylococcus aureus V41; experiment: MIC, standard agar-dilution assay; assay type: cell-based
Description: as §1

[14] = tested on: Streptococcus faecalis X66; experiment: MIC, standard agar-dilution assay; assay type: cell-based; settings: Enterococcus faecalis
Description: as §1

[15] = tested on: Streptococcus pyogenes C203; experiment: ED50 in mice experimentally infected with S. pyogenes C203; assay type: in vivo
Description: The formula 1 compounds have shown in vivo antimicrobial activity against experimentally-induced infections in laboratory animals. When two doses of test compound were administered to mice experimentally infected with S. pyogenes C203, the activity observed was measured as an ED₅₀ value [effective dose in mg/kg to protect 50% of the test animals: see Warren Wick, et 5 al., J. Bacteriol. 81, 233-235 (1961)].

[16] = Staphylococcus epidermidis EPI1, agar dilution, read-out: MIC
[17] = Streptococcus pneumoniae Park I, agar dilution, read-out: MIC
[18] = Staphylococcus aureus X1.1, agar dilution, read-out: MIC
[19] = Haemophilus influenzae C.L., Ampicillin-sensitive strain, agar dilution, read-out: MIC
[20] = Staphylococcus aureus X400, Methicillin-resistant strain, agar dilution, read-out: MIC
[21] = Streptococcus pyogenes C203, agar dilution, read-out: MIC
[22] = Staphylococcus epidermidis 222, agar dilution, read-out: MIC
[23] = Streptococcus faecalis 2041, agar dilution, read-out: MIC
[24] = Escherichia coli EC14, agar dilution, read-out: MIC
[25] = Haemophilus influenzae 76, Ampicillin-resistant strain, agar dilution, read-out: MIC
[26] = Pseudomonas aeruginosa X239, agar dilution, read-out: MIC
[27] = Staphylococcus aureus V41, Penicillin-resistant strain, agar dilution, read-out: MIC
[28] = Streptococcus faecalis X66, agar dilution, read-out: MIC
[29] = C203, mice, oral, two doses given 1 and 4 hours post-infection, dose protecting 50% of the test animals, read-out: ED50 Oral
[30] = C203, sc, mice, subcutaneous, two doses given 1 and 4 hours post-infection, dose protecting 50% of the test animals, read-out: ED50 Subcutaneous
[31] = Klebsiella pneumoniae X68, agar dilution, read-out: MIC

SMILES	MIC [1, 16] [µg/mL]	MIC [2, 17] [µg/mL]	MIC [3, 18] [µg/mL]	MIC [4, 19] [µg/mL]	MIC ([5]; Klebsiella pneumoniae, X68) [µg/mL]	MIC [6, 20] [µg/mL]	MIC [7, 21] [µg/mL]	MIC [8, 22] [µg/mL]	MIC [9, 23] [µg/mL]	MIC (Escherichia coli EC14; [24]) [µg/mL]	MIC [10, 25] [µg/mL]	MIC [11, 26] [µg/mL]	MIC [12] [µg/mL]	MIC [13, 27] [µg/mL]	MIC [14, 28] [µg/mL]	ED50 [15, 29] [mg/kg]	ED50 [15, 30] [mg/kg]	also measured
CCC1OC(=O)CC(O)C(C)C(OC2OC(C)C(O)C(N(C)C)C2O)C(CCOc2ccccc2)CC(C)C(=O)C=CC(C)=CC1COC1OC(C)C(OC(=O)C(N)c2ccccc2)C(OC)C1OC [Compound 7, 20-DH-20-O-Phenyl-4ʹʹ-O-(D-phenylglycyl)-desmycosin]	2 (≈ 2.03 µM)	2 (≈ 2.03 µM)	1 (≈ 1.02 µM)	128 (≈ 130 µM)	> 128	1 (≈ 1.02 µM)	2 (≈ 2.03 µM)	1 (≈ 1.02 µM)	32 (≈ 32.5 µM)	> 128	64 (≈ 65.1 µM)	> 128	1 (≈ 1.02 µM)	2 (≈ 2.03 µM)	16 (≈ 16.3 µM)	21	> 10	
CCC1OC(=O)CC(O)C(C)C(OC2OC(C)C(O)C(N(C)C)C2O)C(CCOc2ccccc2)CC(C)C(=O)C=CC(C)=CC1COC1OC(C)C(OC(=O)CNCc2ccccc2)C(OC)C1OC (centres unmarked) [Compound 11, 4ʹʹ-O-(N-Benzylaminoacetyl)-20-DH-20-O-phenyl-desmycosin]	2 (≈ 2.01 µM)	2 (≈ 2.01 µM)	1 (≈ 1 µM)	128 (≈ 128 µM)	> 128	2 (≈ 2.01 µM)	2 (≈ 2.01 µM)	2 (≈ 2.01 µM)	8 (≈ 8.02 µM)	> 128	64 (≈ 64.2 µM)	> 128	2 (≈ 2.01 µM)	2 (≈ 2.01 µM)	8 (≈ 8.02 µM)	14.4	5.7	
CCC1OC(=O)CC(O)C(C)C(OC2OC(C)C(O)C(N(C)C)C2O)C(CCOc2ccccc2)CC(C)C(=O)C=CC(C)=CC1COC1OC(C)C(OC(=O)CN2CCN(C)CC2)C(OC)C1OC (centres unmarked) [Compound 15, 4ʹʹ-O-[(4-Methyl-piperazin-1-yl)acetyl]-20-DH-20-O-phenyl-desmycosin]	8 (≈ 8.08 µM)	1 (≈ 1.01 µM)	4 (≈ 4.04 µM)	128 (≈ 129 µM)		4 (≈ 4.04 µM)	2 (≈ 2.02 µM)	4 (≈ 4.04 µM)	16 (≈ 16.2 µM)	> 128	128 (≈ 129 µM)	> 128	4 (≈ 4.04 µM)	4 (≈ 4.04 µM)	16 (≈ 16.2 µM)	29	> 10	MIC [5, 31]: > 128 µg/mL
CCC1OC(=O)CC(O)C(C)C(OC2OC(C)C(O)C(N(C)C)C2O)C(CCOc2ccccc2)CC(C)C(=O)C=CC(C)=CC1COC1OC(C)C(OC(=O)Cc2ccccc2)C(OC)C1OC (centres unmarked) [Compound 4, 20-DH-20-O-Phenyl-4ʹʹ-O-(phenylacetyl)-desmycosin]					> 128								2 (≈ 2.07 µM)					MIC ([1]; Staphylococcus epidermidis, EPI1): 2 µg/mL (≈ 2.07 µM); MIC ([2]; Streptococcus pneumoniae): 4 µg/mL (≈ 4.13 µM); MIC ([3]; Staphylococcus aureus, X1.1): 2 µg/mL (≈ 2.07 µM); MIC ([4]; Haemophilus influenzae): 128 µg/mL (≈ 132 µM); MIC ([6]; Staphylococcus aureus, X400): 2 µg/mL (≈ 2.07 µM); MIC ([7]; Streptococcus pyogenes, C203): 2 µg/mL (≈ 2.07 µM); MIC ([8]; Staphylococcus epidermidis, 222): 1 µg/mL (≈ 1.03 µM); MIC [9]; 2041: 64 µg/mL (≈ 66.1 µM); MIC (Escherichia coli EC14; Escherichia coli, EC14): > 128 µg/mL; MIC ([10]; Haemophilus influenzae, 76): 128 µg/mL (≈ 132 µM); MIC ([11]; Pseudomonas aeruginosa, X239): > 128 µg/mL; MIC ([13]; Staphylococcus aureus, V41): 2 µg/mL (≈ 2.07 µM); MIC ([14]; X66): 16 µg/mL (≈ 16.5 µM); ED50 ([15]; C203, po, read-out: ED50 Oral): 14.2 mg/kg; ED50 ([15]; C203, sc, read-out: ED50 Subcutaneous): > 10 mg/kg
CCC1OC(=O)CC(O)C(C)C(OC2OC(C)C(O)C(N(C)C)C2O)C(CCOc2ccccc2)CC(C)C(=O)C=CC(C)=CC1COC1OC(C)C(OC(=O)C(NC(=O)OC(C)(C)C)c2ccccc2)C(OC)C1OC [Compound 6, 4ʹʹ-O-(N-BOC)-D-phenylglycyl-20-DH-20-O-phenyl-desmycosin]	16 (≈ 14.8 µM)	16 (≈ 14.8 µM)	8 (≈ 7.38 µM)	> 128	> 128	8 (≈ 7.38 µM)	8 (≈ 7.38 µM)	8 (≈ 7.38 µM)	> 128	> 128	> 128	> 128	16 (≈ 14.8 µM)	8 (≈ 7.38 µM)	> 128			
CCC1OC(=O)CC(O)C(C)C(OC2OC(C)C(OC(C)=O)C(N(C)C)C2OC(C)=O)C(CCOc2ccccc2)CC(C)C(=O)C=CC(C)=CC1COC1OC(C)C(OC(C)=O)C(OC)C1OC (centres unmarked) [Compound 1, 2ʹ,4ʹ,4ʹʹ-Tri-O-acetyl-20-DH-20-O-phenyl-desmycosin]	4 (≈ 4.1 µM)	8 (≈ 8.2 µM)	4 (≈ 4.1 µM)	> 128	> 128	4 (≈ 4.1 µM)	1 (≈ 1.02 µM)	1 (≈ 1.02 µM)	128 (≈ 131 µM)	> 128	> 128	> 128	4 (≈ 4.1 µM)	2 (≈ 2.05 µM)	64 (≈ 65.6 µM)			
CCC1OC(=O)CC(O)C(C)C(OC2OC(C)C(O)C(N(C)C)C2O)C(CCN2CC(C)CC(C)C2)CC(C)C(=O)C=CC(C)=CC1COC1OC(C)C(OC(C)=O)C(OC)C1OC (centres unmarked) [Compound 19, 4ʹʹ-O-Acetyl-20-DH-20-deoxy-20-(3,5-dimethylpiperidin-1-yl)-desmycosin]	1 (≈ 1.1 µM)	0.125 (≈ 0.137 µM)	2 (≈ 2.19 µM)	32 (≈ 35.1 µM)	> 128	1 (≈ 1.1 µM)	0.125 (≈ 0.137 µM)	1 (≈ 1.1 µM)	8 (≈ 8.78 µM)	> 128	64 (≈ 70.2 µM)	> 128	1 (≈ 1.1 µM)	1 (≈ 1.1 µM)	8 (≈ 8.78 µM)			
CCC1OC(=O)CC(O)C(C)C(OC2OC(C)C(OC(C)=O)C(N(C)C)C2OC(C)=O)C(CCOc2ccccc2)CC(C)C(=O)C=CC(C)=CC1COC1OC(C)C(OC(=O)CCl)C(OC)C1OC (centres unmarked) [Compound 8, 2ʹ,4ʹ-Di-O-acetyl-4ʹʹ-O-(chloroacetyl)-20-DH-20-O-phenyl-desmycosin]	2 (≈ 1.98 µM)	8 (≈ 7.92 µM)	2 (≈ 1.98 µM)	> 128	> 128	2 (≈ 1.98 µM)	2 (≈ 1.98 µM)	2 (≈ 1.98 µM)	128 (≈ 127 µM)	> 128	> 128	> 128	2 (≈ 1.98 µM)	2 (≈ 1.98 µM)	32 (≈ 31.7 µM)			
CCC(C)CN(CC)CCC1CC(C)C(=O)C=CC(C)=CC(COC2OC(C)C(OC(C)=O)C(OC)C2OC)C(CC)OC(=O)CC(O)C(C)C1OC1OC(C)C(O)C(N(C)C)C1O (centres unmarked) [Compound 17, 4ʹʹ-O-Acetyl-20-DH-20-deoxy-20-[N-ethyl-N-(2-methylbutyl)amino]desmycosin]	8 (≈ 8.76 µM)	4 (≈ 4.38 µM)	8 (≈ 8.76 µM)	64 (≈ 70.1 µM)		4 (≈ 4.38 µM)	4 (≈ 4.38 µM)	4 (≈ 4.38 µM)	64 (≈ 70.1 µM)	> 128	128 (≈ 140 µM)	> 128	8 (≈ 8.76 µM)	8 (≈ 8.76 µM)	64 (≈ 70.1 µM)			MIC [5, 31]: > 128 µg/mL

Source: patent EP0262903A2, “New acyl derivatives of 20-modified tylosin and desmycosin compounds” (priority 1986, dated 1988)
